In one test the test system is S. aureus HH 127. The test can be described thus: MIC in vitro, S. aureus HH 127. In kind it is cell-based. As to conditions: Staphylococcus aureus. The method, then:
(§1) The compounds of Formula I have antibacterial activity against both Gram-positive and Gram-negative organisms. Minimum inhibitory concentrations (MIC's) range from 0.2 to >200 μg/ml in in vitro testing.

The test system of the next test is S. aureus SK 23390. The experiment in a line: MIC in vitro, S. aureus SK 23390. As to conditions: Staphylococcus aureus. It counts as cell-based. The method, then:
as §1

For a further test, the system named is Strep. faecalis HH 34358. The experiment in a line: MIC in vitro, Strep. faecalis HH 34358. The note with it: for MIC: Enterococcus faecalis, HH34358, Strep. faecalis HH 34358. It counts as cell-based. Here is the method: as §1
The subject of test [1] is E. coli SK 12140. The test can be described thus: MIC in vitro, E. coli SK 12140. In kind it is cell-based. The note with it: Escherichia coli. Here is the method: as §1
The next test relates to E. coli HH 33779. The experiment in a line: MIC in vitro, E. coli HH 33779. It counts as cell-based. As to conditions: for MIC: Escherichia coli. The method, then:
as §1

Test [2] has as its system Kleb. pneumo. SK 4200. The experiment in a line: MIC in vitro, Kleb. pneumo. SK 4200. In kind it is cell-based. The method, then:
as §1

In the next test the test system is Kleb. pneumo. SK 1200. The experiment in a line: MIC in vitro, Kleb. pneumo. SK 1200. It counts as cell-based. Here is the method: as §1
The subject of a further test is Shigella HH 117. The experiment in a line: MIC in vitro, Shigella HH 117. It counts as cell-based. As to conditions: for MIC: Shigella, HH117, Shigella HH 117. The method, then:
as §1

The subject of a further test is Pseudo. aerug. HH 63. The experiment in a line: MIC in vitro, Pseudo. aerug. HH 63. In kind it is cell-based. Here is the method:
as §1

The test system of test [3] is Serrati A marc. ATTC 13880. The test can be described thus: MIC in vitro, Serrati A marc. ATTC 13880. It counts as cell-based. Here is the method:
as §1

A further test has as its system Proteus morgani 179. The experiment in a line: MIC in vitro, Proteus morgani 179. In kind it is cell-based. The method, then:
as §1

Test [4] concerns Entero. aerog. ATTC 13048. The experiment in a line: MIC in vitro, Entero. aerog. ATTC 13048. It counts as cell-based. The method, then:
as §1

For the next test, the system named is Entero. cloacae HH 31254. The test can be described thus: MIC in vitro, Entero. cloacae HH 31254. It counts as cell-based. As to conditions: Enterobacter cloacae. The method, then:
as §1

The test system of test [5] is E. coli SK 12140. The test can be described thus: In vivo mouse protection, E. coli SK 12140. The note with it: Escherichia coli. Here is the method:
as §1

For test [6], the system named is Kleb. pneumo. SK 4200. The test can be described thus: In vivo mouse protection, Kleb. pneumo. SK 4200. The note with it: sc, Kleb. pneumo. SK 4200, s.c.
Another test has as its system Salmonella ATCC 12176. The test can be described thus: MIC in vitro, Salmonella ATCC 12176. It counts as cell-based. As to conditions: ATCC12176, Salmonella ATCC 12176. The method, then: as §1
The next test relates to S. villaluz SK 70390. The test can be described thus: MIC in vitro, S. villaluz SK 70390. In kind it is cell-based. The method, then: as §1
[7] abbreviates: SK23390, S. aureus SK 23390, read-out: MIC in vitro.
The mark [8] stands for this setting: SK12140, E. coli SK 12140, read-out: MIC in vitro.
Where [9] appears, read: HH33779, E. coli HH 33779, read-out: MIC in vitro.
The mark [10] stands for this setting: read-out: MIC in vitro, Kleb. pneumo. SK 1200.
[11] abbreviates: Entero. aerog. ATTC 13048, read-out: MIC in vitro.
The mark [12] stands for this setting: read-out: MIC in vitro, Entero. aerog. ATTC 13048.
The mark [13] stands for this setting: HH31254, Entero. cloacae HH 31254, read-out: MIC in vitro.
Where [14] appears, read: SK12140, po, E. coli SK 12140, p.o.
[15] abbreviates: SK12140, sc, E. coli SK 12140, s.c.
Where [16] appears, read: HH127, S. aureus HH 127, read-out: MIC in vitro.

≈ marks a conversion by molar mass, not a printed value. Like-named read-outs stand apart in the source and are kept apart here.

These results are taken from US4118491A, “7-Acyl-3-(sulfaminoalkyl substituted tetrazolylthiomethyl)cephalosporins, antibacterial compositions containing them and methods of treating bacterial infections with them” (SmithKline Corporation, priority 1976, dated 1978).

A word on the MIC: it is the lowest concentration that inhibits growth of the organism. For orientation: ED50 means the dose that gives a 50% effect, or the effect in half of the subjects. Low readings indicate an effect at a small dose, high ones a need for a large dose. On to `O=C(O)C1=C(CSc2nnnn2CCNS(=O)(=O)O)CSC2C(NC(=O)[C@H](O)c3ccccc3)C(=O)N12` (stereo partly drawn) [Compound 1, 7-D-mandelamido-3-[1-(2-sulfaminoethyl)tetrazol-5-ylthiomethyl]-3-cephem-4-carboxylic acid], for which the MIC was 3.1 µg/mL (≈ 5.42 µM) in the test with S. aureus HH 127 (HH127, read-out: MIC in vitro); 0.8 µg/mL (≈ 1.4 µM) with S. aureus SK 23390 (setting [7]); 100 µg/mL (≈ 175 µM) in the test on Strep. faecalis HH 34358; 0.8 µg/mL (≈ 1.4 µM) in the test with E. coli SK 12140 [1] (setting [8]); 3.1 µg/mL (≈ 5.42 µM) in the test on E. coli HH 33779 (setting [9]); 1.6 µg/mL (≈ 2.8 µM) in the test with Kleb. pneumo. SK 4200 [2]. Further, the MIC with Kleb. pneumo. SK 1200 (setting [10]) was 0.4 µg/mL (≈ 0.7 µM); in the test on Shigella HH 117 it was 0.4 µg/mL (≈ 0.7 µM); in the test on Pseudo. aerug. HH 63 it was greater than 200 µg/mL; in test [3] it was 100 µg/mL (≈ 175 µM); in test [4] (setting [11]), 50 µg/mL (≈ 87.5 µM); in test [4] (setting [12]) it was 6.3 µg/mL (≈ 11 µM). The MIC with Entero. cloacae HH 31254 (setting [13]) was 1.6 µg/mL (≈ 2.8 µM). For the same compound, the MIC in vitro against Strep. faecalis HH 34358 (Strep. faecalis HH 34358) worked out at 50 µg/mL (≈ 87.5 µM); against E. coli HH 33779 (E. coli HH 33779), 1.6 µg/mL (≈ 2.8 µM); against Kleb. pneumo. SK 4200 [2] it was 0.8 µg/mL (≈ 1.4 µM); against Kleb. pneumo. SK 1200 (Kleb. pneumo. SK 1200), 0.2 µg/mL (≈ 0.35 µM); in the test on Shigella HH 117 (Shigella HH 117), 0.2 µg/mL (≈ 0.35 µM); in the test on Proteus morgani 179 it was 3.1 µg/mL (≈ 5.42 µM). The figures for the ED50 with E. coli SK 12140 [5] (setting [14]), in the test on E. coli SK 12140 [5] (setting [15]) and with Kleb. pneumo. SK 4200 [6] were 50 mg/kg, 0.46 mg/kg and 0.46 mg/kg, respectively.
Take `O=C(Cc1cccs1)NC1C(=O)N2C(C(=O)O)=C(CSc3nnnn3CCNS(=O)(=O)O)CSC12` (stereo not shown) [Compound 2, 7-(2-thienylacetamido)-3-[1-(2-sulfaminoethyl)tetrazol-5-ylthiomethyl]-3-cephem-4-carboxylic acid]: the MIC came to 1.6 µg/mL (≈ 2.85 µM) in the test with S. aureus HH 127 (setting [16]); 0.4 µg/mL (≈ 0.712 µM) with S. aureus SK 23390 (SK23390, read-out: MIC in vitro); 12.5 µg/mL (≈ 22.3 µM) in the test on Strep. faecalis HH 34358; 3.1 µg/mL (≈ 5.52 µM) in the test with E. coli SK 12140 [1] (SK12140, read-out: MIC in vitro); 12.5 µg/mL (≈ 22.3 µM) in the test on E. coli HH 33779 (setting [9]); 3.1 µg/mL (≈ 5.52 µM) in the test with Kleb. pneumo. SK 4200 [2]. In addition, the MIC in the test with Kleb. pneumo. SK 1200 (Kleb. pneumo. SK 1200, read-out: MIC in vitro) is 0.8 µg/mL (≈ 1.42 µM); with Salmonella ATCC 12176, 12.5 µg/mL (≈ 22.3 µM); against Pseudo. aerug. HH 63, greater than 200 µg/mL; in test [3] it was greater than 200 µg/mL; against Proteus morgani 179 it was greater than 200 µg/mL; in [4] (setting [11]) it was 25 µg/mL (≈ 44.5 µM). Further, the minimum inhibitory concentration (MIC) with Entero. cloacae HH 31254 (setting [13]) was 6.3 µg/mL (≈ 11.2 µM). Moreover, the ED50 in the test on E. coli SK 12140 [5] (setting [14]) was greater than 50 mg/kg; in the test on E. coli SK 12140 [5] (setting [15]), 1.02 mg/kg.
On to `O=C(Cn1cnnn1)NC1C(=O)N2C(C(=O)O)=C(CSc3nnnn3CCNS(=O)(=O)O)CSC12` (stereo not shown) [Compound 3, 7-(1-tetrazolylacetamido)-3-[1-(2-sulfaminoethyl)tetrazol-5-ylthiomethyl]-3-cephem-4-carboxylic acid], for which the MIC in the test on S. aureus HH 127 (HH127, read-out: MIC in vitro) is 3.1 µg/mL (≈ 5.66 µM); with S. aureus SK 23390 (setting [7]), 3.1 µg/mL (≈ 5.66 µM); against S. villaluz SK 70390, greater than 200 µg/mL; against Strep. faecalis HH 34358, 50 µg/mL (≈ 91.3 µM); in the test on E. coli SK 12140 [1] (setting [8]), 0.8 µg/mL (≈ 1.46 µM); in the test on E. coli HH 33779 (HH33779, read-out: MIC in vitro), 0.8 µg/mL (≈ 1.46 µM). The MIC was 0.8 µg/mL (≈ 1.46 µM) with Kleb. pneumo. SK 4200 [2]; 0.4 µg/mL (≈ 0.731 µM) with Kleb. pneumo. SK 1200 (setting [10]); 0.4 µg/mL (≈ 0.731 µM) in the test on Salmonella ATCC 12176; 0.4 µg/mL (≈ 0.731 µM) in the test on Shigella HH 117; greater than 200 µg/mL with Pseudo. aerug. HH 63; 200 µg/mL (≈ 365 µM) in [3]. In addition, the MIC against Proteus morgani 179 is 200 µg/mL (≈ 365 µM); in [4] (setting [12]) it was 3.1 µg/mL (≈ 5.66 µM); with Entero. cloacae HH 31254 (HH31254, read-out: MIC in vitro), 0.8 µg/mL (≈ 1.46 µM). The ED50 with E. coli SK 12140 [5] (setting [15]) is 1.56 mg/kg.
In the case of `O=C(CSC(F)(F)F)NC1C(=O)N2C(C(=O)O)=C(CSc3nnnn3CCNS(=O)(=O)O)CSC12` (stereo not shown) [Compound 4, 7-trifluoromethylthioacetamido-3-[1-(2-sulfaminoethyl)tetrazol-5-ylthiomethyl]-3-cephem-4-carboxylic acid], the MIC with S. aureus HH 127 (setting [16]) was 1.6 µg/mL (≈ 2.76 µM); with S. aureus SK 23390 (setting [7]), 1.6 µg/mL (≈ 2.76 µM); in the test on S. villaluz SK 70390 it was greater than 200 µg/mL; against Strep. faecalis HH 34358, 100 µg/mL (≈ 173 µM); in the test on E. coli SK 12140 [1] (setting [8]), 0.8 µg/mL (≈ 1.38 µM); in the test on E. coli HH 33779 (setting [9]), 1.6 µg/mL (≈ 2.76 µM). Moreover, the MIC was 0.8 µg/mL (≈ 1.38 µM) in the test on Kleb. pneumo. SK 4200 [2]; 0.2 µg/mL (≈ 0.345 µM) in the test with Kleb. pneumo. SK 1200 (setting [10]); 0.4 µg/mL (≈ 0.69 µM) in the test on Salmonella ATCC 12176; 0.8 µg/mL (≈ 1.38 µM) against Shigella HH 117; greater than 200 µg/mL in the test with Pseudo. aerug. HH 63; 100 µg/mL (≈ 173 µM) in test [3]. In addition, the MIC in the test on Proteus morgani 179 is greater than 200 µg/mL; in test [4] (setting [12]) it was 6.3 µg/mL (≈ 10.9 µM); in the test with Entero. cloacae HH 31254 (setting [13]), 1.6 µg/mL (≈ 2.76 µM). The ED50 in the test on E. coli SK 12140 [5] (setting [14]) was 50 mg/kg; with E. coli SK 12140 [5] (setting [15]), 1.82 mg/kg.
